Measured values taken from patent US20180134726A1, “PLANT GROWTH REGULATING COMPOUNDS” (Syngenta Participations AG, priority 2012, published 2018).

Legend:
[1] = test system: Orobanche cumana Wallr. seeds (race 'F'); assay: Orobanche cumana seed germination test on glass fiber filter paper; format: in vivo; conditions: preconditioned seeds, seed lot IN153, 10 days at 20° C. in the dark, mean, N = 5 × 100 seeds
Method: The effect of compounds of Formula (I) on germination of Orobanche cumana Wallr. seeds was evaluated on glass fiber filter paper (GFFP) in petri dishes. Seeds were preconditioned at moisture and suitable temperature to become responsive to the specific chemical germination stimulants.
Test compounds were dissolved in DMSO (10 000 mg l^−1) and stored at room temperature in a desiccators with desiccants. The stock solutions were dissolved with deionised water to the appropriate final test concentration.
Seeds of O. cumana race ‘F’ were collected from sunflower fields in Manzanilla (Seville, Spain) in 2008 (seed lot IN153) and stored at room temperature. To separate seeds from heavy organic debris, a modified sucrose floatation technique as described by Hartman & Tanimonure (Plant Disease (1991), 75, p. 494) was applied. Seeds were filled into a separation funnel and stirred in water. When seeds floated to the surface, the water fraction containing heavy debris was discarded. Seeds were re-suspended in 2.5M sucrose solution (specific gravity of 1.20) and heavy debris was allowed to settle down for 60 min. After removing debris, seeds were disinfected in 1% sodium hypochlorite solution and 0.025% (v/v) Tween 20 for 2 min. The seeds were decanted onto two layers of cheesecloth, rinsed with sterile deionised water and re-suspended in sterile deionised water. Two ml of the seed suspension containing approximately 150-400 seeds were spread evenly on two layers of sterile glass fiber filter paper disc ([…]) in Petri dishes (Ø9 cm). After wetting the discs with 3 ml sterile deionised water, petri dishes were sealed with parafilm. Seeds were incubated for 10 days at 20° C. in the dark for seed conditioning. The upper disc with conditioned seeds was briefly dried, transferred to a petri dish lined with a dry GFFP disc, and wetted with 6 ml of the appropriate test solution. The compounds of Formula (I) were tested at concentrations of 0.001, 0.01, and 0.1 mg l^−1. The strigolactone analogue GR24 (commercially available as a mixture of isomers) was included as positive control and 0.001% DMSO as negative control. All treatments were tested in five replicates. Seeds were re-incubated at 20° C. in the dark and examined for germination 10 days later. The radicles of germinated seeds were stained for 5 min with blue ink (MIGROS, Switzerland) in 5% acetic acid according to Long et al. (Seed Science Research (2008), 18, p. 125). After staining, seeds were scanned using a flatbed scanner with an optical resolution of 1200 dpi (PULSTEK, OpticPro ST28) or photographed using a camera stand mounted with a digital SLR camera (Canon EOS 5D). Germination of 100 seeds per replicate was evaluated on digital images. Seeds were considered germinated when the radicle protruded from the seed coat.

[2] = test system: Brassica oleracea cv Botrytis (temperate cauliflower Spacestar) seeds; assay: Cauliflower paper germination test under suboptimal conditions; format: in vivo; conditions: 25 μM, 10° C. and in the light
Method: The effect of compounds of Formula (I) on the germination of Brassica oleracea cv Botrytis or common cauliflower was tested on two types of cauliflowers: temperate types and tropical types. These two types were chosen because they display different sensitivities to the light conditions and temperature during germination. Germination of a sensitive temperate type is inhibited by light at 10° C. while for the tropical types germination at 20° is stimulated by the presence of light. […] The temperate seed batches tested are part of commercially produced seed batches of various varieties which are known to be sensitive to light at 10° C. These seeds were harvested and cleaned according standard commercial procedures. Ready seed batches were used (Ready indicates the processing level of these seeds: they have been cleaned and sized but received no other treatments). The tropical seed batches tested are part of seed batches produced as basic seed (for maintenance of the parental line) and were processed accordingly. Germination was assessed using the standard paper germination test for Brassica: Fifty seeds were placed on blue germination paper, which was moistened with the appropriate solutions, in closed oblong germination boxes. Each condition was tested in duplo. Germination boxes were placed in controlled germination cabinets with the appropriate temperature and light conditions. Germination of seeds was counted at regular intervals. Seeds were considered to be germinated when the radical had protruded the testa and endosperm (radical size approximately 1 mm). Test compounds were dissolved in DMSO at a concentration of 50 mM and stored at −20° C. The strigolactone analogue GR24 (commercially available as a racemic mixture of 2 diastereoisomers, referred to as “synthetic strigolactone GR-24” and first prepared by Johnson A. W. & all, Journal of the Chemical Society, Perkin Transactions 1, 1981, page 1734-1743) was included as positive control. Germination solutions were prepared by diluting the stock solutions with demineralized water till 25 μM. As control solutions demineralized water and a 0.05% v/v DMSO solution were used.

[3] = Spacestar seed batch 11B313 (cold-sensitive)
[4] = Spacestar seed batch 11B314 (not cold sensitive)

Row | Compound | Germination (%) ([1]; 0.001 mg l^−1) | Germination (%) ([1]; 0.01 mg l^−1) | Germination (%) ([1]; 0.1 mg l^−1) | Gmax (total germination as percentage of sown seeds) [2, 3] | stimulation (extra germination compared to the DMSO treatment, as percentage of the germination in the DMSO treatment) [2, 3] | Gmax (total germination as percentage of sown seeds) [2, 4] | stimulation (extra germination compared to the DMSO treatment, as percentage of the germination in the DMSO treatment) [2, 4]
1 | CC1=C[C@H](O/C=C2/C(=O)N[C@@H]3c4ccsc4C[C@H]23)OC1=O (racemic) [Compound A3, (3aR*,8bS*)-(3E)-3-[(2R)(4-methyl-5-oxo-2H-furan-2-yl)oxymethylene]-3,3a,4,8b-tetrahydro-1H-thioindeno[1,2-b]pyrrol-2-one] | 87.8% | 85.6% | 84.6% | 75.0% | 38.9% | 94.0% | 9.3%
2 | CC1=C[C@H](O/C=C2/C(=O)O[C@@H]3c4ccccc4C[C@H]23)OC1=O [GR24] | 67% | 65% | 78.4% | 71.5% | 19.2% | 93.5% | 3.3%
